Assay type in all cases: physicochemical
Data set [1] in a line: Dynamic vapor sorption (DVS), SPS11-10µ, one cycle at 25 °C. The settings on record: DVS isotherm at 25 °C. On the procedure: (§1) Example 7: Dynamic vapor sorption (DVS) of (R)-3-[6-amino-pyridin-3-yl]-2-(1-cyclohexyl-1 H-imidazol-4-yl)-propionic acid sodium salt monohydrate: Moisture sorption/desorption isotherms were recorded on a SPS11-10µ from Projekt Messtechnik (Ulm, Germany). One cycle was run at 25 °C, in which the sample was first stepwise decreased to 0% RH and then the relative humidity was stepwise increased from 0 to 95% and the weight of the sample was measured. Typical total measurement times for both cycles were about 20 to 30 hours. The measured data for the (R)-3-[6-amino-pyridin-3-yl]-2-(1-cyclohexyl-1 H-imidazol-4-yl)-propionic acid sodium salt monohydrate as prepared in Examples 2 or 3 are shown in the following table: DVS Isotherm at 25 °C:
Example 12: DVS, Comparison Experiment: (R)-3-[6-amino-pyridin-3-yl]-2-(1-cyclohexyl-1 H-imidazol-4-yl)-propionic acid as prepared in Example 1 was used for the measurement. The measurement was performed as disclosed in Example 7 with (R)-3-[6-amino-pyridin-3-yl]-2-(1-cyclohexyl-1 H-imidazol-4-yl)-propionic acid (free acid, amorphous) and the received data are shown in the following table: DVS Isotherm at 25 °C
as §1, with “(DVS):” for “(DVS) of (R)-3-[6-amino-pyridin-3-yl]-2-(1-cyclohexyl-1 H-imidazol-4-yl)-propionic acid sodium salt monohydrate:”, “Room humidity (RH)” for “RH”, “dihydrate” for “monohydrate”, “Example” for “Examples 2 or”, “isotherm” for “Isotherm”, “25°C:” for “25 °C:”
Example 9: DVS, Comparison Experiment: (R)-3-[6-amino-pyridin-3-yl]-2-(1-cyclohexyl-1 H-imidazol-4-yl)-propionic acid as prepared in Example 1 was used for the measurement. The measurement was performed as disclosed in Example 7 with (R)-3-[6-amino-pyridin-3-yl]-2-(1-cyclohexyl-1 H-imidazol-4-yl)-propionic acid (free acid, amorphous) and the received data are shown in the following table: DVS Isotherm at 25 °C

Data set [2] is described as follows: Determination of solubility in a mixture of acetone and water (4:1, by volume). The settings on record: for Solubility [g in 100 g of solvent]: acetone and water (4:1, by volume); for solubility compared with polymorph 1: result in words. As to the method:
Determination of solubility: For the determination of the solubility in a mixture of acetone and water (4:1, by volume), samples of 0.5 mg to 50 mg of the test substances were suspended in a defined amount of the solvent (800 mg to 1200 mg) in screw cap vials with a magnetic stirring bar, which were placed in a temperature-controlled multiple stirring device equipped for transmission measurement (Avantium Crystal 16). With stirring at 700 rpm, the vials were cooled from room temperature to 0 °C and then heated to 60 °C with a heating rate of 3 °C/h, kept at 60 °C for 2 h and cooled again to 0 °C with a cooling rate of 3 °C/h. By means of transmission measurement it was determined whether the sample was dissolved (100 % transmission), or crystals were present. For polymorph 1 ({drug5b}), polymorph 2 ({drug5c}), hydrate 1 ({drug5e}) and hydrate 2 ({drug5f}) of compound (V) the following solubilities in a mixture of acetone and water (4:1, by volume) were determined.

Data set [3] is described as follows: Dynamic vapor sorption (DVS), DVS-1 instrument, two cycles at 25 °C. The note with it: for weight increase in the sorption step: 25 °C.

As to `Nc1ccc(C[C@@H](C(=O)[O-])c2cn(C3CCCCC3)cn2)cn1.O.[Na+]` [(R)-3-[6-amino-pyridin-3-yl]-2-(1-cyclohexyl-1 H-imidazol-4-yl)-propionic acid sodium salt monohydrate], the “Change In Mass (%) Desorption” value in data set [1] (Target RH 0.2 %) was -4.4%; in data set [1] (Target RH 10.0 %), -0.6%; in data set [1] (Target RH 20.0 %) it was -0.1%; in data set [1] (Target RH 30.1 %), 0.1%. Moreover, the “Change In Mass (%) Sorption” value in data set [1] (Target RH 10.0 %) is listed as -3.7%; in data set [1] (Target RH 20.0 %) it was -0.2%; in data set [1] (Target RH 30.0 %) it was 0.2%; in data set [1] (Target RH 40.0 %), 0.6%; in data set [1] (Target RH 50.0 %) it was 0.9%; in data set [1] (Target RH 60.0 %) it was 1.5%. Besides, the “Change In Mass (%) Sorption” value in data set [1] (Target RH 70.0 %) came to 4.0%; in data set [1] (Target RH 75.0 %) it was 8.2%; in data set [1] (Target RH 80.1 %), 11.9%; in data set [1] (Target RH 85.1 %), 17.7%; in data set [1] (Target RH 90.0 %), 38.2%; in data set [1] (Target RH 94.9 %), 67.4%.

Consider `CNc1nccc(-c2cc3cc(C(=O)N[C@@H](CN(c4ccccc4)c4ncccn4)C(N)=O)ccc3[nH]2)n1` [Polymorph 2, 2-(2-methylamino-pyrimidin-4-yl)-1 H-indole-5-carboxylic acid [(S)-1-carbamoyl-2-(phenyl-pyrimidin-2-yl-amino)-ethyl]-amide], for which the “Solubility [g in 100 g of solvent]” value in data set [2] (Temperature 46.0 °C) is on record as 1.02 g in 100 g of solvent; in data set [2] (Temperature 57.5 °C) it was 2.48 g in 100 g of solvent. In addition, the “solubility compared with polymorph 1” value in data set [2] is reported as “higher solubility than polymorph 1”. Also, the “weight increase in the sorption step” value in data set [3] (Relative humidity 40 %, first cycle) was 0.2%; in data set [3] (Relative humidity 40 %, second cycle) it was 0.0%; in data set [3] (Relative humidity 60 %, first cycle) it was 0.3%; in data set [3] (Relative humidity 60 %, second cycle), 0.1%; in data set [3] (Relative humidity 80 %, first cycle) it was 0.4%; in data set [3] (Relative humidity 80 %, second cycle) it was 0.3%. Moreover, the “weight increase in the sorption step” value in data set [3] (Relative humidity 95 %, first cycle) is listed as 0.8%; in data set [3] (Relative humidity 95 %, second cycle), 0.6%. Moreover, the “water uptake (hygroscopicity)” value in data set [3] (at a high relative humidity of 80 %) is “about 0.4%”.

Consider `CNc1nccc(-c2cc3cc(C(=O)N[C@@H](CN(c4ccccc4)c4ncccn4)C(N)=O)ccc3[nH]2)n1.O.O` [Hydrate 1, 2-(2-methylamino-pyrimidin-4-yl)-1 H-indole-5-carboxylic acid [(S)-1-carbamoyl-2-(phenyl-pyrimidin-2-yl-amino)-ethyl]-amide dihydrate], for which the results for the “Solubility [g in 100 g of solvent]” value in data set [2] (Temperature 38.6 °C), in data set [2] (Temperature 49.7 °C) and in data set [2] (Temperature 57.4 °C) were 2.11 g in 100 g of solvent, 3.39 g in 100 g of solvent and 5.04 g in 100 g of solvent, respectively. Also, the “solubility compared with polymorph 1” value in data set [2] is on record as “higher solubility than polymorph 1”. For the same molecule, the hygroscopicity result in data set [3] (result in words) was “low hygroscopicity”.

Consider `CNc1nccc(-c2cc3cc(C(=O)N[C@@H](CN(c4ccccc4)c4ncccn4)C(N)=O)ccc3[nH]2)n1.O.O.O.O.O.O` [Hydrate 2, 2-(2-methylamino-pyrimidin-4-yl)-1 H-indole-5-carboxylic acid [(S)-1-carbamoyl-2-(phenyl-pyrimidin-2-yl-amino)-ethyl]-amide hexahydrate], for which the figures for the “Solubility [g in 100 g of solvent]” value in data set [2] (Temperature 36.8 °C), in data set [2] (Temperature 46.1 °C) and in data set [2] (Temperature 55.9 °C) were 0.50 g in 100 g of solvent, 1.02 g in 100 g of solvent and 2.61 g in 100 g of solvent, respectively. In addition, in data set [2], the “solubility compared with polymorph 1” value is on record as “higher solubility than polymorph 1”.

Values taken from EP2805705B1, “Packaging with one or more administration units comprising a sodium salt of (R)-3-[6-amino-pyridin-3-yl]-2-(1-cyclohexyl-1 H-imidazol-4-yl)-propionic acid” (IP Gesellschaft für Management mbH, priority 2013, dated 2014).
